MIC, HC10 and hemolysis data for 6 molecules are collected here from ChEMBL document CHEMBL5331122, “Structure-Activity Relationship Study of Antimicrobial Peptide PE2 Delivered Novel Linear Derivatives with Potential of Eradicating Biofilms and Low Incidence of Drug Resistance” (J Med Chem, 2023).

For one data set, the system named is Enterococcus faecalis. Nature of the data set: Antibacterial activity against Enterococcus faecalis ATCC 29212 assessed as bacterial growth inhibition incubated for 18 hrs by broth microdilution method. Format: functional. (In general: In broth dilution the organism is exposed to a series of concentrations in liquid medium.)
A further data set has as its system Pseudomonas aeruginosa. As to the kind of experiment: Antibacterial activity against Pseudomonas aeruginosa ATCC 27853 assessed as bacterial growth inhibition incubated for 18 hrs by broth microdilution method. Format: functional.
The test system of the next data set is Escherichia coli. Nature of the data set: Antibacterial activity against Escherichia coli ATCC 25922 assessed as bacterial growth inhibition incubated for 18 hrs by broth microdilution method. Format: functional.
Another data set deals with Bacillus subtilis. Nature of the data set: Antibacterial activity against Bacillus subtilis ATCC 23857 assessed as bacterial growth inhibition incubated for 18 hrs by broth microdilution method. Format: functional.
The next data set deals with Erythrocyte. As to the kind of experiment: Hemolytic activity in mouse red blood cell assessed as hemolysis incubated for 1 hr. Format: toxicity, cell-based. Particulars: dose 4-256 µg/ml.
Another data set relates to Klebsiella pneumoniae. As to the kind of experiment: Antibacterial activity against Klebsiella pneumoniae ATCC 700603 assessed as bacterial growth inhibition incubated for 18 hrs by broth microdilution method. Format: functional.
Data set [1] can be described thus: Hemolytic activity in mouse red blood cells assessed as hemolysis at 256 microg/ml incubated for 1 hr relative to control. Format: toxicity, cell-based, Erythrocyte. The settings on record: red blood cells (erythrocytes), at 256 µg/mL, read-out: Activity.
A further data set concerns Staphylococcus aureus. Nature of the data set: Antibacterial activity against Staphylococcus aureus ATCC 25923 assessed as bacterial growth inhibition incubated for 18 hrs by broth microdilution method. Format: functional.

Values after ≈ are worked out from the molar mass of the structure shown.

As for `CCCCCC(=O)N[C@H]1CCNC(=O)[C@H]([C@@H](C)O)NC(=O)[C@H](CC(C)C)NC(=O)[C@@H](C(C)C)NC(=O)[C@H](CCN)NC(=O)[C@H](CC(C)C)NC(=O)[C@@H](Cc2ccccc2)NC(=O)[C@H](CCN)NC(=O)[C@H]([C@@H](C)CC)NC1=O`, the MIC – broadly, the smallest concentration in the dilution series that meets the test's criterion for growth inhibition – was greater than 128 µg/mL with Enterococcus faecalis; greater than 128 µg/mL in the data set on Pseudomonas aeruginosa; 32 µg/mL (≈ 29.5 µM) in the data set with Escherichia coli; 128 µg/mL (≈ 118 µM) in the data set with Bacillus subtilis; 64 µg/mL (≈ 59 µM) in the data set on Klebsiella pneumoniae; greater than 128 µg/mL with Staphylococcus aureus. Moreover, the HC10 in the data set on Erythrocyte came to 512 µg/mL. In addition, the hemolysis at 1 h, 256 µg/mL in data set [1] is less than 5%.

For the molecule `CC[C@H](C)[C@@H]1NC(=O)[C@H](CCN)NC(=O)[C@H](CC(C)C)NC(=O)[C@H]([C@@H](C)O)NC(=O)[C@H](CC(C)C)NC(=O)[C@@H](C(C)C)NC(=O)[C@H](CCN)NC(=O)[C@H](CC(C)C)NC(=O)[C@@H](Cc2ccccc2)NC(=O)[C@H](CCN)NC1=O`, the minimal inhibitory concentration (MIC) in the data set with Enterococcus faecalis is greater than 128 µg/mL; in the data set with Pseudomonas aeruginosa it was 16 µg/mL (≈ 14.5 µM); with Escherichia coli, 32 µg/mL (≈ 29.1 µM); with Bacillus subtilis it was 16 µg/mL (≈ 14.5 µM); in the data set with Klebsiella pneumoniae, 32 µg/mL (≈ 29.1 µM); with Staphylococcus aureus, greater than 128 µg/mL. For the same molecule, the HC10 with Erythrocyte is 512 µg/mL. Moreover, the hemolysis at 1 h, 256 µg/mL in data set [1] is less than 5%.

As to `CCCCCC(=O)N[C@@H](CCN)C(=O)N[C@H](C(=O)N[C@@H](CCN)C(=O)N[C@H](Cc1ccccc1)C(=O)N[C@@H](CC(C)C)C(=O)N[C@@H](CCN)C(=O)N[C@@H](C(=O)N[C@@H](CC(C)C)C(=O)N[C@@H](CCCCN)C(N)=O)C(C)C)[C@@H](C)CC`, the MIC was determined as 128 µg/mL (≈ 113 µM) in the data set with Enterococcus faecalis; 2 µg/mL (≈ 1.77 µM) with Pseudomonas aeruginosa; 64 µg/mL (≈ 56.7 µM) in the data set with Escherichia coli; 8 µg/mL (≈ 7.08 µM) with Bacillus subtilis; 32 µg/mL (≈ 28.3 µM) with Klebsiella pneumoniae; 64 µg/mL (≈ 56.7 µM) in the data set on Staphylococcus aureus. The HC10 in the data set with Erythrocyte turned out to be 512 µg/mL. The hemolysis at 1 h, 256 µg/mL in data set [1] was less than 5%.

With `CCCCCC(=O)N[C@@H](CCN)C(=O)N[C@H](C(=O)N[C@@H](CCN)C(=O)N[C@H](Cc1ccccc1)C(=O)N[C@@H](CC(C)C)C(=O)N[C@@H](CCN)C(=O)N[C@@H](C(=O)N[C@@H](CC(C)C)C(=O)N[C@H](C(N)=O)[C@@H](C)O)C(C)C)[C@@H](C)CC`, the MIC in the data set on Enterococcus faecalis was 128 µg/mL (≈ 116 µM); with Pseudomonas aeruginosa it was 4 µg/mL (≈ 3.63 µM); in the data set with Escherichia coli it was 16 µg/mL (≈ 14.5 µM); with Bacillus subtilis, 4 µg/mL (≈ 3.63 µM); in the data set with Klebsiella pneumoniae, 32 µg/mL (≈ 29 µM); in the data set with Staphylococcus aureus, 32 µg/mL (≈ 29 µM). Moreover, the HC10 in the data set on Erythrocyte is 512 µg/mL. Further, the hemolysis at 1 h, 256 µg/mL in data set [1] was less than 10%.

Take `CCCCCC(=O)N[C@@H](CCN)C(=O)N[C@H](C(=O)N[C@@H](CCN)C(=O)N[C@H](Cc1ccccc1)C(=O)N[C@@H](CC(C)C)C(=O)N[C@@H](CCN)C(=O)N[C@@H](C(=O)N[C@@H](CC(C)C)C(=O)N[C@@H](C)C(N)=O)C(C)C)[C@@H](C)CC`: the MIC is greater than 128 µg/mL with Enterococcus faecalis; 4 µg/mL (≈ 3.73 µM) in the data set on Pseudomonas aeruginosa; 32 µg/mL (≈ 29.8 µM) with Escherichia coli; 8 µg/mL (≈ 7.46 µM) in the data set with Bacillus subtilis; 64 µg/mL (≈ 59.7 µM) in the data set on Klebsiella pneumoniae; 64 µg/mL (≈ 59.7 µM) with Staphylococcus aureus. In the data set on Erythrocyte, the HC10 was found to be 512 µg/mL. For the same molecule, the hemolysis at 1 h, 256 µg/mL in data set [1] was less than 5%.

As to `CCCCCC(=O)N[C@@H](CCN)C(=O)N[C@H](C(=O)N[C@@H](CCN)C(=O)N[C@H](Cc1ccccc1)C(=O)N[C@@H](CC(C)C)C(=O)N[C@@H](CCN)C(=O)N[C@@H](C(=O)N[C@@H](CC(C)C)C(=O)N[C@@H](Cc1ccc(O)cc1)C(N)=O)C(C)C)[C@@H](C)CC`, the minimum inhibitory concentration (MIC) turned out to be 64 µg/mL (≈ 55 µM) with Enterococcus faecalis; 16 µg/mL (≈ 13.7 µM) in the data set on Pseudomonas aeruginosa; 4 µg/mL (≈ 3.43 µM) with Escherichia coli; 4 µg/mL (≈ 3.43 µM) in the data set with Bacillus subtilis; 8 µg/mL (≈ 6.87 µM) in the data set with Klebsiella pneumoniae; 16 µg/mL (≈ 13.7 µM) with Staphylococcus aureus. In the data set with Erythrocyte, the HC10 amounted to 512 µg/mL. For the same molecule, in data set [1], the hemolysis at 1 h, 256 µg/mL is less than 5%.
